Structures are written as SMILES. Some results are limits rather than exact numbers.

The subject of this assay is whole cells (NMuLi, C2C12, and L6 cells, isolated cardiomyocytes, human primary fibroblasts). Description: Oxygen consumption rate (OCR) in whole cells, Seahorse XF-24 Flux Analyzer. It is filed as cell-based. Particulars: increase in OCR; binned EC50 values. The procedure:
Biological activities of the compounds synthesized is determined by determining increase in oxygen consumption rate (OCR).
Oxygen consumption rate (OCR) in whole cells is measured in general accordance with the method of Kenwood B M et al. (Mol. Met. (2014) 3:114-123).
OCR is measured using a Seahorse XF-24 Flux Analyzer (Seahorse Biosciences, North Billerica, MA). NMuLi, C2C12, and L6 cells are seeded in a Seahorse 24-well tissue culture plate at a density of 3.5×10^4 cells/well, isolated cardiomyocytes at a density of 4×10^4 cells/well, and human primary fibroblasts at a density of 1.1×10^4 cells/well. The cells are then allowed to adhere for 24 h. Prior to the assay, the media is changed to unbuffered DMEM containing pyruvate and glutamine (Gibco #12800-017, pH=7.4 at 37° C.) and the cells are equilibrated for 30 mins at 37°° C. Compounds are injected during the assay and OCR is measured using 2 min measurement periods.
2-3 wells are used per condition and averaged over three plates (n=6-9). Statistical significance is determined by two-way ANOVA with Bonferroni's posttest.
Activities are reported as binned EC50 values: A=5 μM or less; B=>5 to 20 μM; C=over 20 μM; NA=not active.
As usually defined, the EC50 is the concentration that produces a half-maximal response. In the case of `Cc1ccc(-c2cccc(Nc3nc4nonc4nc3O)c2)cc1` [1-132, 6-((4′-methyl-[1,1′-biphenyl]-3-yl)amino)-[1,2,5]oxadiazolo[3,4-b]pyrazin-5-ol], the 50% effective concentration (EC50) is ≤ 5 µM.
Turning to `CC(=O)c1ccc(Nc2nc3nonc3nc2O)cc1` [1-47, 1-(4-((6-Hydroxy-[1,2,5]oxadiazolo[3,4-b]pyrazin-5-yl)amino)phenyl)ethan-1-one], the EC50 was > 20 µM.
For `Cc1ccc(C(F)(F)F)cc1Nc1nc2nonc2nc1O` [1-12, 6-((2-Methyl-5-(trifluoromethyl)phenyl)amino)-[1,2,5]oxadiazolo[3,4-b]pyrazin-5-ol] the value was 5 to 20 µM; for `Oc1nc2nonc2cc1Nc1cc(C(F)(F)F)cc(C(F)(F)F)c1` [1-243, 6-((3,5-bis(trifluoromethyl)phenyl)amino)-[1,2,5]oxadiazolo[3,4-b]pyridin-5-ol], ≤ 5 µM.
Turning to `CCCCOc1cccc(Nc2nc3nonc3nc2O)c1` [1-96, 6-((3-butoxyphenyl)amino)-[1,2,5]oxadiazolo[3,4-b]pyrazin-5-ol], the EC50 was ≤ 5 µM.
`Oc1nc2nonc2nc1Nc1ccc(OC(F)(F)F)cc1Br` [1-38, 6-((2-Bromo-4-(trifluoromethoxy)phenyl)amino)-[1,2,5]oxadiazolo[3,4-b]pyrazin-5-ol]: the EC50 is ≤ 5 µM.
The figure for `Oc1nc2nonc2nc1Nc1ccc(OCC2CC2)c(C(F)(F)F)c1` [1-92, 6-((4-(cyclopropylmethoxy)-3-(trifluoromethyl)phenyl)amino)-[1,2,5]oxadiazolo[3,4-b]pyrazin-5-ol] is ≤ 5 µM; for `Oc1nc2nonc2nc1Nc1ccc(OCC(F)(F)F)cc1` [1-88, 6-((4-(2,2,2-Trifluoroethoxy)phenyl)amino)-[1,2,5]oxadiazolo[3,4-b]pyrazin-5-ol] it is > 20 µM.
As to `COc1cccc(-c2ccc(Nc3nc4nonc4nc3O)cc2)c1` [1-137, 6-((3′-methoxy-[1,1′-biphenyl]-4-yl)amino)-[1,2,5]oxadiazolo[3,4-b]pyrazin-5-ol], the EC50 is ≤ 5 µM.
As for `CC(C)(C)c1cccc(Nc2nc3nonc3nc2O)c1` [1-53, 6-((3-(tert-Butyl)phenyl)amino)-[1,2,5]oxadiazolo[3,4-b]pyrazin-5-ol], the EC50 was ≤ 5 µM.
For `Oc1nc2nonc2nc1Nc1ccc(-c2ccccc2)cc1` [1-103, 6-([1,1′-biphenyl]-4-ylamino)-[1,2,5]oxadiazolo[3,4-b]pyrazin-5-ol] the value was ≤ 5 µM; for `Oc1nc2nonc2nc1Nc1ccc(F)c(Br)c1` [1-33, 6-((3-Bromo-4-fluorophenyl)amino)-[1,2,5]oxadiazolo[3,4-b]pyrazin-5-ol], 5 to 20 µM.
For `CCCC#Cc1ccc(Nc2nc3nonc3nc2O)c(F)c1` [1-62, 6-((2-Fluoro-4-(pent-1-yn-1-yl)phenyl)amino)-[1,2,5]oxadiazolo[3,4-b]pyrazin-5-ol] the value was ≤ 5 µM.
`Cc1ccc(Nc2nc3nonc3nc2O)cc1` [1-58, 6-(p-Tolylamino)-[1,2,5]oxadiazolo[3,4-b]pyrazin-5-ol]: the EC50 was > 20 µM.
For `Cc1ccc(Nc2nc3nonc3nc2O)cc1C` [1-60, 6-((3,4-Dimethylphenyl)amino)-[1,2,5]oxadiazolo[3,4-b]pyrazin-5-ol] the value was 5 to 20 µM; for `Oc1nc2nonc2nc1NC1CCCCC1` [1-212, 6-(cyclohexylamino)-[1,2,5]oxadiazolo[3,4-b]pyrazin-5-ol], > 20 µM; for `CCc1ccc(Nc2nc3nonc3nc2O)c(F)c1` [1-68, 6-((4-ethyl-2-fluorophenyl)amino)-[1,2,5]oxadiazolo[3,4-b]pyrazin-5-ol], 5 to 20 µM.
The figure for `Oc1nc2nonc2nc1Nc1ccc(OC(F)(F)F)cc1Cl` [1-41, 6-((2-Chloro-4-(trifluoromethoxy)phenyl)amino)-[1,2,5]oxadiazolo[3,4-b]pyrazin-5-ol] is ≤ 5 µM.
For `Oc1nc2nonc2nc1Nc1cccc(I)c1` [1-18, 6-((3-Iodophenyl)amino)-[1,2,5]oxadiazolo[3,4-b]pyrazin-5-ol] the value was 5 to 20 µM.
As for `CCCCC#Cc1ccc(Nc2nc3nonc3nc2O)c(F)c1` [1-63, 6-((2-Fluoro-4-(hex-1-yn-1-yl)phenyl)amino)-[1,2,5]oxadiazolo[3,4-b]pyrazin-5-ol], the EC50 was ≤ 5 µM.
For `Oc1nc2nonc2nc1Nc1ccc(I)cc1OC(F)(F)F` [1-35, 6-((4-Iodo-2-(trifluoromethoxy)phenyl)amino)-[1,2,5]oxadiazolo[3,4-b]pyrazin-5-ol], the EC50 was ≤ 5 µM.
The figure for `Oc1nc2nonc2nc1Nc1cccc(OC(F)(F)F)c1` [1-9, 6-((3-(Trifluoromethoxy)phenyl)amino)-[1,2,5]oxadiazolo[3,4-b]pyrazin-5-ol] is ≤ 5 µM; for `CC(Nc1nc2nonc2nc1O)C12CC3CC(CC(C3)C1)C2` [1-83, 6-((1-((1S,3S)-adamantan-1-yl)ethyl)amino)-[1,2,5]oxadiazolo[3,4-b]pyrazin-5-ol] it is 5 to 20 µM; for `Oc1nc2nonc2cc1Nc1cccc(C(F)(F)F)c1` [1-234, 6-((3-(trifluoromethyl)phenyl)amino)-[1,2,5]oxadiazolo[3,4-b]pyridin-5-ol] it is > 20 µM.
The figure for `Oc1nc2nonc2nc1Nc1ccc(OC(F)(F)F)c(-c2ccc(C(F)(F)F)nc2)c1` [1-117, 6-((4-(trifluoromethoxy)-3-(6-(trifluoromethyl)pyridin-3-yl)phenyl)amino)-[1,2,5]oxadiazolo[3,4-b]pyrazin-5-ol] is 5 to 20 µM; for `Oc1nc2nonc2nc1NC1C2CC3CC(C2)CC1C3` [1-85, 6-(((1R,3R,5R,7R)-adamantan-2-yl)amino)-[1,2,5]oxadiazolo[3,4-b]pyrazin-5-ol] it is > 20 µM; for `Oc1nc2nonc2nc1Nc1ccc(OCC(F)(F)F)c(C(F)(F)F)c1` [1-91, 6-((4-(2,2,2-Trifluoroethoxy)-3-(trifluoromethyl)phenyl)amino)-[1,2,5]oxadiazolo[3,4-b]pyrazin-5-ol] it is 5 to 20 µM.
Turning to `Oc1nc2nonc2nc1Nc1ccccc1` [1-52, 6-(Phenylamino)-[1,2,5]oxadiazolo[3,4-b]pyrazin-5-ol], the EC50 is > 20 µM.
As for `Oc1nc2nonc2nc1Nc1ccc(SC(F)(F)F)cc1` [1-25, 6-((4-((Trifluoromethyl)thio)phenyl)amino)-[1,2,5]oxadiazolo[3,4-b]pyrazin-5-ol], the EC50 is ≤ 5 µM.
The figure for `Oc1nc2nonc2nc1Nc1cccc(-c2ccccc2)c1` [1-104, 6-([1,1′-biphenyl]-3-ylamino)-[1,2,5]oxadiazolo[3,4-b]pyrazin-5-ol] is ≤ 5 µM.
The figure for `CCCCOc1ccc(Nc2nc3nonc3nc2O)cc1` [1-95, 6-((4-butoxyphenyl)amino)-[1,2,5]oxadiazolo[3,4-b]pyrazin-5-ol] is ≤ 5 µM; for `Oc1nc2nonc2nc1Nc1ccc(Cl)cc1` [1-21, 6-((4-Chlorophenyl)amino)-[1,2,5]oxadiazolo[3,4-b]pyrazin-5-ol] it is 5 to 20 µM; for `Oc1nc2nonc2nc1Nc1cc(F)cc(F)c1` [1-15, 6-((3,5-Difluorophenyl)amino)-[1,2,5]oxadiazolo[3,4-b]pyrazin-5-ol] it is 5 to 20 µM.
Take `Oc1nc2nonc2nc1Nc1ccc(S(F)(F)(F)(F)F)cc1` [1-30, 6-((4-(Pentafluoro-16-sulfaneyl)phenyl)amino)-[1,2,5]oxadiazolo[3,4-b]pyrazin-5-ol]: the EC50 is ≤ 5 µM.
In the case of `CC12CC3CC(C)(C1)CC(Nc1nc4nonc4nc1O)(C3)C2` [1-82, 6-(((1R,3R,5S,7R)-3,5-dimethyladamantan-1-yl)amino)-[1,2,5]oxadiazolo[3,4-b]pyrazin-5-ol], the EC50 is ≤ 5 µM.
Take `O=C(Nc1nc2nonc2nc1OCc1ccccc1)c1ccc(C(F)(F)F)cc1` [1-196, N-(6-(benzyloxy)-[1,2,5]oxadiazolo[3,4-b]pyrazin-5-yl)-4-(trifluoromethyl)benzamide]: the EC50 is 5 to 20 µM.
As to `CC1(C)c2ccccc2-c2ccc(Nc3nc4nonc4nc3O)cc21` [1-118, 6-((9,9-dimethyl-9H-fluoren-2-yl)amino)-[1,2,5]oxadiazolo[3,4-b]pyrazin-5-ol], the EC50 was ≤ 5 µM.
For `CCCCc1ccc(Nc2nc3nonc3nc2O)c(F)c1` [1-55, 6-((4-Butyl-2-fluorophenyl)amino)-[1,2,5]oxadiazolo[3,4-b]pyrazin-5-ol], the EC50 was ≤ 5 µM.
In the case of `Oc1nc2nonc2nc1Nc1ccc(-c2ccc(OC(F)F)cc2)cc1` [1-108, 6-((4′-(difluoromethoxy)-[1,1′-biphenyl]-4-yl)amino)-[1,2,5]oxadiazolo[3,4-b]pyrazin-5-ol], the EC50 was ≤ 5 µM.
For `COc1cc(OC(F)(F)F)ccc1Nc1nc2nonc2nc1O` [1-22, 6-((2-Methoxy-4-(trifluoromethoxy)phenyl)amino)-[1,2,5]oxadiazolo[3,4-b]pyrazin-5-ol] the value was ≤ 5 µM; for `CC(C)(C)c1ccc(Nc2nc3nonc3nc2O)cc1` [1-51, 6-((4-(tert-Butyl)phenyl)amino)-[1,2,5]oxadiazolo[3,4-b]pyrazin-5-ol], ≤ 5 µM; for `Oc1nc2nonc2nc1Nc1ccc(OC(F)F)cc1` [1-27, 6-((4-(Difluoromethoxy)phenyl)amino)-[1,2,5]oxadiazolo[3,4-b]pyrazin-5-ol], > 20 µM.
As for `Oc1nc2nonc2nc1Nc1cccc(-c2cccc(C(F)(F)F)c2)c1` [1-135, 6-((3′-(trifluoromethyl)-[1,1′-biphenyl]-3-yl)amino)-[1,2,5]oxadiazolo[3,4-b]pyrazin-5-ol], the EC50 is ≤ 5 µM.

The values above are taken from patent US12655156B2, “Oxadiazolopyrazines and oxadiazolopyridines useful as mitochondrial uncouplers” (Virginia Tech Intellectual Properties, Inc., priority 2018, dated 2026).
